Experimental data taken from patent EP1996603B1, “LIPID A ANTAGONISTS WITH ANTI-SEPTIC SHOCK, ANTI-INFLAMMATORY, ANTI-ISCHEMIA AND ANALGESIC ACTIVITY” (Università Degli Studi Di Milano - Bicocca, priority 2006, dated 2007).
Entries after “also recorded” stand apart in the source; their conditions may differ.

Columns and labels:
BMΦ, BMDC and D1 cells = test: Lipid A-induced TNFα production in macrophages and dendritic cells (ELISA); format: cell-based, Mouse
Description: BMΦ and DC were derived from bone marrow cells and divided in two separate cultures. For DC preparation bone marrow cells were cultured in complete IMDM supplemented with 10% supernatant of GM-CSF-transduced B16 tumor cells [R. Soiffer, T. Lynch, M. Mihm, K. Jung, C. Rhuda, J. C. Schmollinger, F. S. Hodi, L. Liebster, P. Lam, S. Mentzer, S. Singer, K. K. Tanabe, A. B. Cosimi, R. Duda, A. Sober, A. Bhan, J. Daley, D. Neuberg, G. Parry, J. Rokovich, L. Richards, J. Drayer, A. Berns, S. Clift, L. K. Cohen, R. C. Mulligan, G. Dranoff, Proc. Natl. Acad. Sci. U S A. 1998, 95(22), 13141-13146]. Fresh medium was added every 2 d. After 7-10 d of culture, cells were analyzed for CD11c expression and used in assays when 90% were CD11c positive. For BMΦ preparation bone marrow cells were cultured in complete IMDM supplemented with 10% supernatant of M-CSF-transduced NIH3T3 cells. Also in this case, fresh medium was added every 2 d. After 7-10 d of culture, cells were analyzed for Mac1 expression and used in assays when at least 90% were Mac1 positive. D1 cells were cultured in complete IMDM supplemented with 10% supernatant of GM-CSF-transduced B16 tumor cells.
D1 cells, BMDC and MΦ were plated in 48 well plates at a concentration of 200000 cells/well in 200µL of medium. One or two hours after plating they were treated with different amounts of compounds Ic and Id for 30 min and then stimulated with Lipid A from Escherichia coli (F583, Rd mutant Sigma, 0.5µM) for 18 h.
Given the pivotal role of early-activated DC and MΦ in directing inflammatory reactions, compounds Ia, Ic and Id were tested for their ability to antagonize the stimulatory activity of lipid A on bone marrow derived macrophages (BMΦ) and DC (BMDC) by interfering with their capacity to induce TNFα production. As source of DC, D1 cells, a long term growth factor (GM-CSF)-dependent DC line [C. Winzler et al. J. Exp. Med. 1997, 185, 317-327] were also used. BMΦ, BMDC and D1 cells were stimulated with lipid A (0.5 µM) after a pre-exposure to compounds Ia, Ic and Id and the amount of TNFα released in the supernatant was measured by ELISA.

[1] = Solubility in the aqueous media used in the tests; format: physicochemical; conditions: compared with Ia and Ic
TLR2 = test: TNFα production after stimulation with Pam3Cys-SK4 (TLR2 selectivity); format: cell-based, Mouse; conditions: stimulation with Pam3Cys-SK4, specific for TLR2
Description: (§1) • Figure 1. Antagonistic activity of compounds Ia, Ic and Id on lipid A-stimulated cytokine production in BMDC, BMØ and D1 cells. TNFα production was measured in the supernatants 24 h later. From the right: lipid A (0.5µM), cells treated with lipid A alone; DMSO: cells incubated in the presence of complete medium plus DMSO; inhibitor 50 µM, cells treated only with monosaccharides Ia, Ic and Id; other columns, lipid A + compounds […] at increasing doses. The data represent means and standard deviations of triplicate wells. This is a representative of three independent experiments. *, p < 0.05; **, p < 0.01; ***, p< 0.001. • Figure 2. TLR-4 selectivity of monosaccharide Id. […] IL-1β was measured in the supernatants by ELISA. […] Lower panels, TNFα production measured by ELISA 24 h after stimulation with CpG (selective for TLR-9) or PAM3Cys-SK4 (selective for TLR-2) in the presence of compound Id. […] The cells were then analyzed by FACS for the presence of annexin V and propidium iodide (PI) double positive cells. […] NF-kB activation was evaluated in the nuclear extract 2 h later and expressed as optical density (OD) at 450 nm. […] Effect of different doses of compound Id on carrageenan induced edema in mice measured 4h after the exposure and expressed as difference between the paw volume of treated paw versus the contralateral paw. […]

TLR9 = test: TNFα production after stimulation with CpG (TLR9 selectivity); format: cell-based, Mouse; conditions: stimulation through CpG, recognized by TLR9
Description: as §1

With `CCCCCCCCCCCCCCO[C@H]1[C@@H](OC)O[C@H](C[N+](C)(C)C2CCCC2)[C@@H](O)[C@@H]1OCCCCCCCCCCCCCC` [Compound Id, methyl 6-deoxy-6-N,N',N"-dimethylcyclopentylammonium-2,3-di-O-tetradecyl-α-D-glucopyranoside] as the compound, how does the “direct inflammatory function (stimulating cytokines production)” value (BMΦ, BMDC and D1 cells; cells treated with compound alone, without lipid A) read?
Its value is “did not show any direct inflammatory function”.

What about the “relative potency as inhibitor of lipid A” value (BMΦ, BMDC and D1 cells; comparison between compounds Ia, Ic and Id) of the same compound?
The value was “more potent than Ic”.

And the TNFα production (BMΦ, BMDC and D1 cells; stimulation with lipid A (0.5 µM) after pre-exposure to compound, TNFα released in the supernatant measured by ELISA, BMΦ, BMDC and D1 cells)?
Its TNFα production is “interfered with lipid A's action in a dose-dependent manner; also recorded: lower activity; also recorded: inhibited”.

And the “solubility in the aqueous media used in the tests” value [1]?
Its value is “highest solubility”.

What about the TNFα production (TLR2) of the same compound?
The TNFα production was “not inhibited”.

What about the TNFα production (TLR9) of the same compound?
Its TNFα production is “not inhibited”.
